Assay results published in patent publication US20020115611A1, “Methods for screening GABA-modulatory compounds for specified pharmacological activities” (priority 1999, published 2002).
Read-outs that look alike come from different tables or passages of the source.

Key:
[1] = target: α1β2γ2 GABAA subtype receptor (Homo sapiens, UniProt P14867+P18507); assay: cell-based; conditions: for EC50 / oocyte electrophysiology maximum potentiation α1β2γ2: human subunits, GABA at EC10; for oocyte electrophysiology maximum potentiation α1β2γ2: negative = inverse agonism; for Emax: read-out: oocyte electrophysiology maximum potentiation α1β2γ2
Chain of α1β2γ2 GABAA subtype receptor (P14867 28-456): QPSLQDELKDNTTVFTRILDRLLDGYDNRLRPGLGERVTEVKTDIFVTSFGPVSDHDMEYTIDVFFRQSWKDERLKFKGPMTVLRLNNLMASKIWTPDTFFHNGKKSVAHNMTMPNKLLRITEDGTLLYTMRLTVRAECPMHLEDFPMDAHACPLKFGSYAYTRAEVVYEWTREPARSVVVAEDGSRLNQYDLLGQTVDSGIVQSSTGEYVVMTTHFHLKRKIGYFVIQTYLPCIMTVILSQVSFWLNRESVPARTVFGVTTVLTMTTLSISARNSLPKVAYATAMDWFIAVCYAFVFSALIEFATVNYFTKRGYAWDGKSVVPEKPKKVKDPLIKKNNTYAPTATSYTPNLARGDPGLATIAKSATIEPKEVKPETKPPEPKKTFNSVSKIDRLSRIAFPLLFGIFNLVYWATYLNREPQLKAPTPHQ
Chain of α1β2γ2 GABAA subtype receptor (P47870 25-512 partner limits assumed): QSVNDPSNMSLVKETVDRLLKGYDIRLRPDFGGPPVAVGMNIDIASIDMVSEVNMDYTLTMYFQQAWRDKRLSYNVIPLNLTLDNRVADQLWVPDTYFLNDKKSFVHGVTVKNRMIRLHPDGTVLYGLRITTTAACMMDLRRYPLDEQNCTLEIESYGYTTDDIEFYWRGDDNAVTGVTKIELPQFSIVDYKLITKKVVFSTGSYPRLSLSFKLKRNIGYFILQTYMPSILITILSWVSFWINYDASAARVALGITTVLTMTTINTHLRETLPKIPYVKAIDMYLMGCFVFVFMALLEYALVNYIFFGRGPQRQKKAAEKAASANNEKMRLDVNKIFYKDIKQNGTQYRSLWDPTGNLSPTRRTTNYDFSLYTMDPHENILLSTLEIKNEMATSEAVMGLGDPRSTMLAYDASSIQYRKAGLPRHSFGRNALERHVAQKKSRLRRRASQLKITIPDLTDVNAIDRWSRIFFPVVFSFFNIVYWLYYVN
Chain of α1β2γ2 GABAA subtype receptor (P18507 40-475): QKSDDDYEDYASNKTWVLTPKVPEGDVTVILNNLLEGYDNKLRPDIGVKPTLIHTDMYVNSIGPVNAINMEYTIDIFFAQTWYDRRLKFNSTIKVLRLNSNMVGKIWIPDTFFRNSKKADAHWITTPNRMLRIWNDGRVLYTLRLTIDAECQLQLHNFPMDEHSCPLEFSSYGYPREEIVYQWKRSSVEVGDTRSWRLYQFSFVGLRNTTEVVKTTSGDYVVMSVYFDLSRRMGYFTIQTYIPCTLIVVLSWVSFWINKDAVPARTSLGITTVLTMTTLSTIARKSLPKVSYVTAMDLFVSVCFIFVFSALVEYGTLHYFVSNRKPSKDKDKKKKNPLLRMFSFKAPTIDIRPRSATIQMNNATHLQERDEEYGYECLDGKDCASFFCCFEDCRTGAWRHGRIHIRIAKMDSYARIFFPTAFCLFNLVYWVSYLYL
From the text: (§1) The in vitro efficacy and EC50 value of the test compound may be determined by measuring the chloride flux at the surface of a cell expressing the α,β, and γ subunits of the GABAA receptor in response to GABA by the two electrode voltage-clamp technique. While a variety of cells are suitable for use herein, the preferred cells used in this technique are Xenopus laevis oocytes that have been injected with non-polyadenylated CRNA coding for human derived α, βand γ GABAA subunits. The preferred form of the γ subunit is the normally expressed long form although an alternatively spliced form may be used.
(§2) Assays are carried out as described previously in White and Gurley, 1995 and White, et al., 1995. Xenopus laevis oocytes are enzymatically isolated and injected with non-polyadenylated cRNA for human derived α, β and γ GABAA subunits, respectively. In more preferred embodiments cRNA for the α1β2γ2, α2β3γ2, α3β3γ2, and α5β3γ2 subunit combinations are injected. Only one of these subunit combinations is injected per cell. For each subunit combination, sufficient message is injected to result in current amplitudes of >10 nA when 1 μM GABA is applied. Electrophysiological recordings are carried out using the two electrode voltage-clamp technique at a membrane holding potential of −70 mV.
(§3) Compounds are evaluated against a GABA concentration that evokes <10% (EC10) of the maximal evocable GABA current. Each oocyte is exposed to increasing concentrations of compound in order to evaluate a concentration/effect relationship.
(§4) Specificity of a compound for the Ro15-1788 site is determined following completion of the concentration/effect curve. After washing the oocyte sufficiently to remove previously applied compound, the oocyte is exposed to GABA and 1 μM Ro15-1788, followed by exposure to GABA, 1 μM Ro15-1788, and compound. Percent change due to addition of compound is calculated as described above. Any percent change observed in the presence of Ro15-1788 is subtracted from the percent changes in current amplitude observed in the absence of 1 μM Ro15-1788. These net values are used for the calculation of average activity and EC50 values.
(§5) To evaluate average activity and EC50 values, the concentration/effect data are averaged across cells and fit to the logistic equation. Average values are reported as mean±standard error.

[2] = target: α2β3γ2 GABAA subtype receptor (Homo sapiens, UniProt P18507+P47869); assay: cell-based; conditions: for EC50 / oocyte electrophysiology maximum potentiation α2β3γ2: human subunits, GABA at EC10; for Emax: read-out: oocyte electrophysiology maximum potentiation α2β3γ2; for oocyte electrophysiology maximum potentiation α2β3γ2: negative = inverse agonism
Chain of α2β3γ2 GABAA subtype receptor (P47869 29-451): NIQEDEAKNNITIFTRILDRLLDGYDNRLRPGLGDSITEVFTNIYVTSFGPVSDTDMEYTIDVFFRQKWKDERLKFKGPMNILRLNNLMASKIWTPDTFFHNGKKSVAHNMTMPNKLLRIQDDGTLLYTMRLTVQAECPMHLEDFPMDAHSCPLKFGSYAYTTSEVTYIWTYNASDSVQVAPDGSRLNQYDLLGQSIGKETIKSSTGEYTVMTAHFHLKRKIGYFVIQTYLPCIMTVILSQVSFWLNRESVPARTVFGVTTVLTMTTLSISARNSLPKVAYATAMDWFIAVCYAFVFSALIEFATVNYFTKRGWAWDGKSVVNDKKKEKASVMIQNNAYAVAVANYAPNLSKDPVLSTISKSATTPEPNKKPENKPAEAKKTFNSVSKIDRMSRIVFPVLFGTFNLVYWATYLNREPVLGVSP
Chain of α2β3γ2 GABAA subtype receptor (P28472 26-473 partner): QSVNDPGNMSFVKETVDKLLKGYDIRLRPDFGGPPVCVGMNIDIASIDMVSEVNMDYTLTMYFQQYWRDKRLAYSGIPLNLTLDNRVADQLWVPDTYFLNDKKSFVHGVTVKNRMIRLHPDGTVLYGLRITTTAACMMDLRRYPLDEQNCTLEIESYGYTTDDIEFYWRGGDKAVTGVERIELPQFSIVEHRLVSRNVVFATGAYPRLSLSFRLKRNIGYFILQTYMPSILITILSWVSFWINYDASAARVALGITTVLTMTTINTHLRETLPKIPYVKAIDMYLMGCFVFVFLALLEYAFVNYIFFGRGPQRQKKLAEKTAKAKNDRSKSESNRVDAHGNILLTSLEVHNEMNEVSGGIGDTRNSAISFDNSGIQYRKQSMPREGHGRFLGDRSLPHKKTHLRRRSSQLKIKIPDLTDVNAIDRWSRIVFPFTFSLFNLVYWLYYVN
Chain of α2β3γ2 GABAA subtype receptor (P18507 40-475): as the sequence (P18507 40-475) above
From the text: as §1, §2, §3, §4, §5

[3] = target: α3β3γ2 GABAA subtype receptor (Homo sapiens, UniProt P18507+P34903); assay: cell-based; conditions: for EC50 / oocyte electrophysiology maximum potentiation α3β3γ2: human subunits, GABA at EC10; for Emax: read-out: oocyte electrophysiology maximum potentiation α3β3γ2; for oocyte electrophysiology maximum potentiation α3β3γ2: negative = inverse agonism
Chain of α3β3γ2 GABAA subtype receptor (P34903 29-492): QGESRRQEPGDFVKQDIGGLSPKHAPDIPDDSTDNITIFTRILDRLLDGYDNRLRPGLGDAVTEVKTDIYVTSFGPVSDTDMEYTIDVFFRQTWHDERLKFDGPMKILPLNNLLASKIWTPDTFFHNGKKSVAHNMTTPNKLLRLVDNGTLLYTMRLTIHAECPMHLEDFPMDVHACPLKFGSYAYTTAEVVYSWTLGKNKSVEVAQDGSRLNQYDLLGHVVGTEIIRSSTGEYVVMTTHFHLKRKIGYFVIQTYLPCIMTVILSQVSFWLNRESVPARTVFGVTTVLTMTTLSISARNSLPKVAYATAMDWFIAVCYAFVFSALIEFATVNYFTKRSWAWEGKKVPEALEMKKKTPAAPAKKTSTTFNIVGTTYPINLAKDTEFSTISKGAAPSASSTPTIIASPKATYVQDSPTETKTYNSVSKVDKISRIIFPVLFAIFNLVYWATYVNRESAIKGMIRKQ
Chain of α3β3γ2 GABAA subtype receptor (P28472 26-473 partner): as the sequence (P28472 26-473 partner) above
Chain of α3β3γ2 GABAA subtype receptor (P18507 40-475): as the sequence (P18507 40-475) above
From the text: as §1, §2, §3, §4, §5

[4] = target: α5β3γ2 GABAA subtype receptor (Homo sapiens, UniProt P18507+P31644); assay: cell-based; conditions: for Emax: read-out: oocyte electrophysiology maximum potentiation α5β3γ2
Chain of α5β3γ2 GABAA subtype receptor (P31644 32-462): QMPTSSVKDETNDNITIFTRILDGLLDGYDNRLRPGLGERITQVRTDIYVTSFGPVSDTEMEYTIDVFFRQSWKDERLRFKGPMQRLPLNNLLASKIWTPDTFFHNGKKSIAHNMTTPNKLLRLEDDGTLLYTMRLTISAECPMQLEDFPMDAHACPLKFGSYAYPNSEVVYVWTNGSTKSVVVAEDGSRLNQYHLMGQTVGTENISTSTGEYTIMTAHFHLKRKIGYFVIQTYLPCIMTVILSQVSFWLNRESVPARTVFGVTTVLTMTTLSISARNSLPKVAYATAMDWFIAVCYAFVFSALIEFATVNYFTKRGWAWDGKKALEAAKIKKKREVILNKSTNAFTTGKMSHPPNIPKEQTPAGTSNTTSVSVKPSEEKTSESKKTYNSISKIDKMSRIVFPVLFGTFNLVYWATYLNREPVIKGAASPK
Chain of α5β3γ2 GABAA subtype receptor (P28472 26-473 partner): as the sequence (P28472 26-473 partner) above
Chain of α5β3γ2 GABAA subtype receptor (P18507 40-475): as the sequence (P18507 40-475) above
From the text: as §1, §2, §3, §4, §5

[5] = tested on: rats; assay: spontaneous locomotor activity; format: in vivo; conditions: rat, IV; sedation as side effect (Tables V and IX); NS = no statistically significant effect over dose range
From the text: (§6) A statistically significant effect in the spatial water maze, step-down passive avoidance, spontaneous locomotor activity, Porsolt swim test, or the elevated plus maze models is defined as p<0.05 using a valid parametric statistical test. Likewise, no statistically significant effect is defined in these models as p>0.05 using a valid parametric statistical test. No statistically significant effect for either of the seizure threshold models is defined as a decrease of less than 25% in the seizure threshold in the presence of a seizure inducing drug or a result that is not significant at the p<0.05 level.
Spontaneous locomotor activity can be measured to determine sedative effects of compounds. Locomotor activity is measured in eight computerized Digiscan-16 Animal Activity Monitors (Omnitech Electronics, Columbus, Ohio) equipped with 48 infrared photocell emitters and detectors. Each box is constructed of Plexiglas sides and floor. Horizontal activity is detected by a set of horizontal sensors on the front to back walls and a second group of sensors on the side to side walls located 5 cm above the cage floor. Vertical activity is detected by a third set of sensors on the side to side walls located 13.5 cm above the cage floor. The rats are tested in the presence of white noise (62 dB) and red light (60 watt). […]

[6] = tested on: rats; assay: Porsolt forced swim test; format: in vivo; conditions: rat, administered IV; antidepressant effect
From the text: as §6
The effects measured in this model have been correlated to antidepressant efficacy for drugs. The paradigm of this model is that an effective antidepressant compound will cause a rat to make greater attempts to escape a water-filled cylinder than a rat given vehicle only.
Animals used in this study were non-naive male Sprague Dawley Rats (SASCO, St. Louis) weighing between 280-350 grams. The test apparatus consists of 6 clear Plexiglas cylinders 40 cm high×19 cm wide. Cylinders are filled to 18 cm with 25° C. water. Each rat is placed in a cylinder for a 15 minute training session. Following either subchronic or acute dosing of either vehicle (0.5% methylcellulose) of compound, animals are brought back 24 hours later for a 5 minute test session. These test session is videotaped for later scoring.
Subchronic dosing consists of administering drug three times in the 24-hour period between training and testing. The drug is administered 24 hrs., 5 hrs., and 1 hr. prior to the test session. Acute dosing consists of administering the drug once, 1 hour prior to the test session. Scoring is done using a time-sampling computer program written in Visual Basic and run in DOS. […] These sampling score are then converted into percentages of the test session.

[7] = tested on: rats; assay: step-down passive avoidance; format: in vivo; conditions: rat; cognitive impairment side effect (Table VII); NS = no statistically significant effect over dose range
From the text: as §6
In step-down passive avoidance a rat is placed on a platform located in the center of an electrified grid floor that is contained within a large (45 cm×45 cm×50 cm) white translucent Plexiglas® enclosure. The natural inclination of the rat is to step off the platform and investigate its surroundings. […] Each time the animal steps off the platform it receives a mild foot shock of 2 mAmps×6 sec. Following each shock the animal is removed from the box, placed in its cage for a one minute inter-trial interval, and then returned to the platform. The latency to step down on each trial, the number of trials taken to reach criterion during training and the retention latency are collected.
Testing is conducted approximately 24 hrs. after training. Drug-free animals are placed on the platform in the box in which they will have been trained and the latency to step down onto the grid floor is recorded for one trial as a measure of memory retention.

[8] = oocyte electrophysiology EC50 α1β2γ2, Xenopus laevis oocytes
[9] = oocyte electrophysiology EC50 α2β3γ2, Xenopus laevis oocytes
[10] = oocyte electrophysiology EC50 α3β3γ2, Xenopus laevis oocytes
[11] = oocyte electrophysiology EC50 α5β3γ2, Xenopus laevis oocytes, human subunits, GABA at EC10
[12] = Xenopus laevis oocytes, read-out: oocyte electrophysiology EC50 α1β2γ2
[13] = Xenopus laevis oocytes, read-out: oocyte electrophysiology EC50 α2β3γ2
[14] = Xenopus laevis oocytes, read-out: oocyte electrophysiology EC50 α3β3γ2
[15] = Xenopus laevis oocytes, human subunits, GABA at EC10, read-out: oocyte electrophysiology EC50 α5β3γ2

Row | SMILES | EC50 [1, 8] [nM] | EC50 [2, 9] [nM] | EC50 [3, 10] [nM] | EC50 [4, 11] [µM] | oocyte electrophysiology maximum potentiation α1β2γ2 ([1]; Xenopus laevis oocytes) [%] | oocyte electrophysiology maximum potentiation α2β3γ2 ([2]; Xenopus laevis oocytes) [%] | EC50 [3, 14] [nM] | EC50 [4, 15] [µM] | further results
1 | Cc1nnc2n1-c1ccc(Cl)cc1C(c1ccccc1)=NC2 [Alprazolam, reference compound] | 37 | 12 | 69 | 0.01 | – | – | – | – | –
2 | CC(C)(C)OC(=O)c1ncn2c1C1CCCN1C(=O)c1c(Br)cccc1-2 (centres unmarked) [Ro16-6028, reference compound] | – | – | – | – | – | – | – | – | spontaneous locomotor activity, minimal efficacious dose [5]: 0.06 mg/kg; Porsolt swim test, minimal efficacious dose [6]: 1 mg/kg
3 | Cc1ccc(-c2nc3ccc(C)cn3c2CC(=O)N(C)C)cc1 [Zolpidem, reference compound] | – | – | – | – | – | – | – | – | Emax [2]: 350%; Emax [3]: 882%; EC50 ([4]; oocyte electrophysiology EC50 α5β3γ2, Xenopus laevis oocytes, human subunits, μM): > 3 µM; Emax [4]: < 20%; step-down passive avoidance, minimal efficacious dose [7]: 0.5 mg/kg
4 | CCOc1ccc(-n2c(=O)c3c[nH]c4ccccc4n-3c2=O)cc1 [compound 1] | 6 | 20 | 35 | – | 12 | 71 | 144 | – | EC50 [1, 12]: 159 nM; EC50 [2, 13]: 114 nM; Porsolt swim test, minimal efficacious dose [6]: 20 mg/kg
5 | O=c1c(-c2ccccc2F)nc2c[nH]c3ccccc3n1-2 [compound 2] | 33 | 12 | 23 | 0.036 | 18 | 40 | – | – | –
6 | CCOc1ccc(NC(=O)c2c[nH]c3c2C(=O)CCC3)cc1 [compound 3] | 33 | 12 | 23 | 0.036 | – | – | 133 | 0.186 | EC50 [1, 12]: 107 nM; Emax [1]: 26%; EC50 [2, 13]: 108 nM; Emax [2]: 52%; spontaneous locomotor activity, minimal efficacious dose [5]: 4 mg/kg; Porsolt swim test, minimal efficacious dose [6]: 20 mg/kg
7 | CNCc1ccc(NC(=O)c2c[nH]c3c2C(=O)CCCC3)cc1 [compound 4] | 48 | 19 | 51 | – | 23 | 66 | 133 | 0.186 | EC50 [1, 12]: 107 nM; EC50 [2, 13]: 108 nM; Porsolt swim test, minimal efficacious dose [6]: 20 mg/kg
8 | O=C(Nc1cccc(F)c1)c1c[nH]c2c(c1=O)CCC2 [compound 5] | – | 9 | 21 | – | – | 44 | – | – | –
9 | COc1ccc(NC(=O)c2c[nH]c3c2C(=O)CC(C)(C)C3)c(F)c1 [compound 6] | 44 | 28 | 33 | – | – | 72 | – | 0.108 | Emax [1]: 25%; oocyte electrophysiology maximum potentiation α3β3γ2 ([3]; Xenopus laevis oocytes): 95%; Emax [4]: 42%; step-down passive avoidance, minimal efficacious dose [7]: 4 mg/kg
10 | O=c1[nH]c2c(n1-c1nc3ccc(F)c(F)c3o1)CCCCC2 [compound 7] | 5 | 4 | 9 | – | 18 | 51 | – | 0.174 | oocyte electrophysiology maximum potentiation α3β3γ2 ([3]; Xenopus laevis oocytes): 83%
11 | CC1CC(=O)c2c(C(=O)Nc3ccc(F)cc3)c[nH]c2C1 (centres unmarked) [compound 8] | 14 | 39 | 37 | 0.04 | 17 | 42 | – | – | oocyte electrophysiology maximum potentiation α3β3γ2 ([3]; Xenopus laevis oocytes): 61%; oocyte electrophysiology maximum potentiation α5β3γ2 ([4]; Xenopus laevis oocytes, human subunits, GABA at EC10, negative = inverse agonism): 16%
12 | c1cc2c(cc1-c1ncc3[nH]c4c(c3n1)CCCC4)OCO2 [compound 9] | 74 | – | – | – | 33 | – | 331 | – | EC50 [2, 13]: 184 nM; Emax [2]: 53%; Emax [3]: 23%; step-down passive avoidance, minimal efficacious dose [7]: 0.5 mg/kg
13 | O=c1c2c[nH]c3ccccc3n-2c(=O)n1-c1ccc(F)cc1 [compound 10] | – | 31 | 46 | 0.081 | – | – | – | – | –
14 | COc1ccc(F)c(-c2ncc3[nH]c4c(c3n2)CCCC4)c1 [compound 11] | 21 | 96 | – | – | – | – | 177 | 0.847 | –
15 | O=C(Nc1ccc(OCCO)cc1)c1c[nH]c2c1C(=O)CCC2 [compound 12] | 18 | 11 | 18 | 0.019 | 15 | – | – | – | –
16 | O=C(Nc1ccccc1)c1c[nH]c2c1C(=O)CCCC2 [compound 13] | 3 | 53 | 36 | 0.023 | – | – | – | – | –
